Experimental data as given in ChEMBL document CHEMBL1201862, “PubChem BioAssay data set” (2004).
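Cells were grown in 96-well plates and exposed to each compound for 48 hours at five concentrations; endpoints were interpolated linearly between bracketing concentrations, or set to the highest concentration if not reached. Here, GI50 denotes the concentration required for 50% inhibition of growth.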 Active and inactive are the calls of the source. No stated cut-off is given here; in the data, active = GI50 up to about 1.1 µM and inactive = higher.

Key:
Test in all cases: NCI-60 cell line screen, 48 h
CAKI-1 = test system: CAKI-1
M14 = test system: M14
DMS-273 = test system: DMS-273
XF498 = test system: XF498
HOP-92 = test system: HOP-92
SN12C = test system: SN12C
OVCAR-4 = test system: OVCAR-4
COLO 205 = test system: COLO 205
HOP-62 = test system: HOP-62
786-0 = test system: 786-0
HL-60 = test system: HL-60
OVCAR-8 = test system: OVCAR-8
LXFL 529 = test system: LXFL 529
UACC-62 = test system: UACC-62
DLD-1 = test system: DLD-1
A549 = test system: A549
HCT-116 = test system: HCT-116
TK-10 = test system: TK-10
SNB-78 = test system: SNB-78
RXF 631 = test system: RXF 631
SK-MEL-2 = test system: SK-MEL-2
HT-29 = test system: HT-29
RPMI-8226 = test system: RPMI-8226
SK-MEL-28 = test system: SK-MEL-28
SF-295 = test system: SF-295
KM12 = test system: KM12
SF-268 = test system: SF-268
SR = test system: SR
NCI-H522 = test system: NCI-H522
CCRF-CEM = test system: CCRF-CEM
MOLT-4 = test system: MOLT-4
SF-539 = test system: SF-539
K562 = test system: K562
HCC 2998 = test system: HCC 2998
M19-MEL = test system: M19-MEL
DMS-114 = test system: DMS-114
EKVX = test system: EKVX
SNB-19 = test system: SNB-19
A498 = test system: A498
NCI-H23 = test system: NCI-H23
SW-620 = test system: SW-620
UO-31 = test system: UO-31
SK-OV-3 = test system: SK-OV-3
SK-MEL-5 = test system: SK-MEL-5
UACC-257 = test system: UACC-257
SNB-75 = test system: SNB-75
NCI-H226 = test system: NCI-H226
OVCAR-3 = test system: OVCAR-3
IGROV-1 = test system: IGROV-1
Malme-3M = test system: Malme-3M
RXF 393 = test system: RXF 393
NCI-H460 = test system: NCI-H460
LOX IMVI = test system: LOX IMVI
ACHN = test system: ACHN
HOP-18 = test system: HOP-18
U-251 = test system: U-251
KM-20L2 = test system: KM-20L2
OVCAR-5 = test system: OVCAR-5

Measured: GI50

CCCCCCCCCCCCCCCCOCC(CP(=O)([O-])OCC[n+]1ccccc1)OC (stereo not drawn)
inactive: CAKI-1 10.4 µM | M14 5.6 µM | DMS-273 2.04 µM | XF498 12.1 µM | HOP-92 2.28 µM | SN12C 11.4 µM | OVCAR-4 11.4 µM | COLO 205 6.46 µM | HOP-62 11.6 µM | 786-0 14 µM | HL-60 1.76 µM | OVCAR-8 14.7 µM | LXFL 529 11.4 µM | UACC-62 11.3 µM | DLD-1 2.81 µM | A549 10.6 µM | HCT-116 9.66 µM | TK-10 2.9 µM | SNB-78 15.9 µM | RXF 631 14.6 µM | SK-MEL-2 16.5 µM | HT-29 4.21 µM | RPMI-8226 2.96 µM | SK-MEL-28 17 µM | SF-295 4.38 µM | KM12 2.67 µM | SF-268 7.1 µM | SR 3.5 µM | NCI-H522 17.3 µM | CCRF-CEM 8.2 µM | MOLT-4 4.65 µM | SF-539 14.6 µM | K562 17.1 µM | HCC 2998 2.45 µM | M19-MEL 12.4 µM | DMS-114 11.4 µM | EKVX 16.5 µM | SNB-19 10.1 µM | A498 11.3 µM | NCI-H23 4.05 µM | SW-620 14.9 µM | UO-31 9.4 µM | SK-OV-3 17.7 µM | SK-MEL-5 14.1 µM | UACC-257 14.5 µM | SNB-75 8.45 µM | NCI-H226 4.02 µM | OVCAR-3 12.6 µM | IGROV-1 3.84 µM | Malme-3M 17.8 µM

CCOC(=O)C(C(=O)OCC)S(C)(=O)=O
inactive: RXF 393 > 100 µM | NCI-H460 > 100 µM | LOX IMVI > 100 µM | M14 > 100 µM | DMS-273 > 100 µM | XF498 > 100 µM | HOP-92 > 100 µM | SN12C > 100 µM | OVCAR-4 > 100 µM | COLO 205 > 100 µM | HOP-62 > 100 µM | ACHN > 100 µM | 786-0 > 100 µM | HL-60 > 100 µM | OVCAR-8 > 100 µM | UACC-62 > 100 µM | DLD-1 > 100 µM | A549 > 100 µM | HCT-116 > 100 µM | TK-10 > 100 µM | HOP-18 > 100 µM | RXF 631 > 100 µM | SK-MEL-2 > 100 µM | HT-29 > 100 µM | RPMI-8226 > 100 µM | SK-MEL-28 > 100 µM | SF-295 > 100 µM | KM12 > 100 µM | U-251 > 100 µM | SR > 100 µM | NCI-H522 > 100 µM | CCRF-CEM > 100 µM | MOLT-4 > 100 µM | SF-539 > 100 µM | K562 > 100 µM | HCC 2998 > 100 µM | M19-MEL > 100 µM | DMS-114 > 100 µM | KM-20L2 > 100 µM | EKVX > 100 µM | SNB-19 > 100 µM | A498 > 100 µM | NCI-H23 > 100 µM | SW-620 > 100 µM | UO-31 > 100 µM | OVCAR-5 > 100 µM | SK-OV-3 > 100 µM | SK-MEL-5 > 100 µM | UACC-257 > 100 µM | NCI-H226 > 100 µM | OVCAR-3 > 100 µM | IGROV-1 > 100 µM | Malme-3M > 100 µM
